Laboratory results: patent US5532229A, “Topical administration of vitamin D to mammals” (priority 1994, dated 1996)

Experiments:
[1] = Experiment 3: serum 25(OH)D3 after 6 weeks of vitamin D3 nutrition; type: in vivo, Male Wistar rats
Description: Male, Wistar rats were obtained at 120-130 g, and placed on a 0.01% calcium, 0.7% phosphate diet that was vitamin D deficient (Teklad Test Diets, Madison, WI) this was for one week to help deplete vitamin D stores. For the next three weeks the rats were fed the vitamin D-deficient diet, but with normal, 0.5%, calcium. Starting with these 3 weeks, the rats were divided into four vitamin D3 -treatment groups, initially, nine rats per group: group a) supplemented once weekly with 0.6 μg vitamin D3 (average dose, 0.08 μg/day); group b) supplemented once every second day with vitamin D3 to provide 2 nmol/day, i.e., each dose was 4 nmol of vitamin D3; group c) supplemented once every second day with vitamin D3 to provide 8 μg/day. The preceding groups all received the vitamin D3 through an infant-feeding tube inserted through the mouth into the stomach. One group, d), received its vitamin D3 in the ethanol applied onto a shaved 2 cm×2 cm patch of skin on the back, this was done every second day to provide vitamin D3 at 8 μg/day. The volume of each dose of vitamin D3 given was adjusted so that the stated doses are per 250 g body weight. […]
Biochemical measurements. 1,25(OH)2 D3 in serum was measured by calf-thymus receptor-binding assay after initial purification of 1,25(OH)2 D3 with C18-OH cartridges (5). For the serum volumes that were minimal, serum was measured out in 50 μL increments, and the final result was adjusted for the volume of sample analyzed. […] The material eluting as 1,25(OH)2 D3 was evaporated and redissolved in acetonitrile: water for further purification with C18-OH cartridges and quantitation by thymus receptor assay, as described for serum. Renal 24-hydroxylase was measured by incubating mitochondria with [^3 H]-25(OH)D3 as substrate (Vieth and Fraser, J Biol Chem. 254:12455-12460;1979). […]

[2] = Experiment 2: serum 25(OH)D3 after 3 wk vitamin D3 supplement; type: in vivo, Male Wistar rats; conditions: 8 μg/day, relative to marginal-diet group
Description: After 30 days, the rats were divided into three groups of 6: one group continued with no supplement, one group was given daily vitamin D3 supplement, 8 μg/day either by gastric tube, the third received the supplement by application to the skin in 50 μL ethanol. Vitamin D3 was given for 3 wk. The day before the rats were killed, the vitamin D3 dose was supplemented with [^14 C]-labelled vitamin D3, 915,000 cpm per rat. Blood was obtained from the tail of each rat at 3 h, 9 h, and by heart puncture when the rats were anesthetized for killing, 24 h after giving the tracer. The blood was extracted and chromatographed to distinguish [^14 C]-vitamin D3 from the [^14 C]-25(OH)D3generated from it. Radioactivity was also measured in the liver, kidney, and adipose tissue. Serum nonradioactive 25(OH)D3 was also measured.
Biochemical measurements. 1,25(OH)2 D3 in serum was measured by calf-thymus receptor-binding assay after initial purification of 1,25(OH)2 D3 with C18-OH cartridges (5). For the serum volumes that were minimal, serum was measured out in 50 μL increments, and the final result was adjusted for the volume of sample analyzed. […] The material eluting as 1,25(OH)2 D3 was evaporated and redissolved in acetonitrile: water for further purification with C18-OH cartridges and quantitation by thymus receptor assay, as described for serum. […]

## C=C1CC[C@H](O)C/C1=C/C=C1\CCC[C@]2(C)[C@@H]([C@H](C)CCCC(C)C)CC[C@@H]12 [vitamin D3]
[1]; 20 nmol/250 g/day
  effectiveness of dermal vs oral route in raising 25(OH)D3: 85%
[1]; dermal 8 μg/day
  serum 25(OH)D3: 127 ± 4 nmol/L
[1]; gastric 8 μg/day
  serum 25(OH)D3: 148 ± 10 nmol/L
[2]
  increase in 25(OH)D3 with dermal relative to gastric supplementation: 59%
